Laboratory results published in publication PMC7887271, “Fast acting allosteric phosphofructokinase inhibitors block trypanosome glycolysis and cure acute African trypanosomiasis in mice” (Nature Communications, 2021).
“And” between values parts separate entries of the source, which are not always exact repeats. Identical values can stand only once. Like-named read-outs stand apart in the source and are kept apart here.

Columns and labels:
[1] = system: bloodstream form of T. brucei strain Lister 427; assay: T. b. brucei 427 growth inhibition assay (LILiT, Alamar Blue); assay type: cell-based; details: Trypanosoma brucei
Experimental: The ‘in vitro’ parasite killing assay used the BSF of the non-human pathogenic subspecies T. b. brucei, strain Lister 427, cultured in HMI-9 medium containing 10% foetal bovine serum. A second cell line, T. b. brucei GVR35-Luc2 which constitutively expresses firefly luciferase was grown in Modified HMI-9 plus 20% foetal calf serum supplemented with 20% Serum Plus (Sigma) and 0.15 μg mL^−1 puromycin. Both strains of trypanosomes were cultured in T-25 vented cap flasks at 37 °C and 5% CO2.
The ‘in vitro’ parasite killing assay used the bloodstream-form of the non-human pathogenic subspecies T. b. brucei, strain Lister 427 (a gift from Professor Keith Matthews) which was cultured in HMI-9 medium containing 10% fetal bovine serum (FBS). A second cell line, T. b. brucei GVR35-Luc2 which constitutively expresses firefly luciferase (5) was grown in Modified HMI-9 plus 20% fetal calf serum (FCS) supplemented with 20% Serum Plus (Sigma) and 0.15 μg/ml puromycin as described previously (5). Both strains of trypanosomes were cultured in T-25 vented cap flasks at 37 °C and 5% CO2.
Growth inhibition tests of bloodstream-form T. b. brucei Lister 427 were carried out using the LILiT (long incubation low inoculation test) method (6). The parasites were cultured in complete HMI-9 medium containing 10% FBS in 96-well plates (Greiner Inc.) with approximately 2500 trypanosomes per well. A 3-fold dilution series (in the range from 45 µM – 0.020 µM) of the inhibitor compounds were prepared in the plate; the maximal concentration of DMSO was 0.45%. After 72 hours of incubation at 37 °C and 5% CO2, 50 µl Alamar Blue (0.2% diluted with Dulbecco’s-phosphate buffered saline (D-PBS, Sigma) was added to each well and plates were incubated at 37 °C and 5% CO2 for 4 hours. Fluorescence was read on the BMG multiplate reader using an excitation wavelength of 530 nm and an emission wavelength of 590 nm.

[2] = biological target: T1, T. brucei phosphofructokinase (TbPFK) (Trypanosoma brucei brucei, UniProt O15648); assay: ADP-Glo assay for measuring PFK inhibition; assay type: biochemical
T1 construct: made in house; host or cells: Escherichia coli C41 (pET28a, codon optimised gene)
T1 sequence (O15648 1-487): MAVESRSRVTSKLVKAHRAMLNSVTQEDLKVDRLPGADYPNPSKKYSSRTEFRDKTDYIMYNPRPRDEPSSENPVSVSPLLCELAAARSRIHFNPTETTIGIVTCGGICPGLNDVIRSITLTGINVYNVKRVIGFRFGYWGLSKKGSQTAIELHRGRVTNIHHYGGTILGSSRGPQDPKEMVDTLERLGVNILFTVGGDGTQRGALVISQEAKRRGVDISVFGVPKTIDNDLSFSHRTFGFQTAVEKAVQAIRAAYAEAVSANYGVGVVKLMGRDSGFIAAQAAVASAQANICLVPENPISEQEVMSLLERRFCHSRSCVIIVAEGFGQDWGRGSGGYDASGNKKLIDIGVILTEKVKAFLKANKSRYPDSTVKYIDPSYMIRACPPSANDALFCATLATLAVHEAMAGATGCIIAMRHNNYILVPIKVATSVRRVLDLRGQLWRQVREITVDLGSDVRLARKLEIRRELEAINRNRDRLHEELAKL
Experimental: Parasite enzyme kinetic data were measured using N-terminally His6-tagged TbPFK expressed in Escherichia coli C41 cells, using a codon optimised gene inserted in a pET28a vector (Supplementary Methods 1). Recombinant human PFKs were expressed in PFK-deficient Saccharomyces cerevisiae. PFK enzyme inhibition was measured using an ADP-Glo^TM assay (Promega) in a 96-well plate format (Supplementary Methods 2.1), using a Spectramax© M5 Multimode Plate Reader to measure luminescence values which were converted to ADP concentrations. IC50 values were determined using a sigmoidal curve fitting algorithm in Kaleidagraph 4 (Supplementary Fig. 1). Mode of action studies were carried out using a linked enzyme assay coupling the forward reaction of TbPFK to the M1 isoform of human pyruvate kinase followed by lactate dehydrogenase. The change in UV absorbance at 340 nm resulting from the conversion of NADH to NAD^+ was measured at 25 °C in ‘kinetic mode’ on a Spectramax© M5 Multimode plate reader. Initial velocities were plotted against substrate concentration to give curves showing non-competitive inhibition (Supplementary Fig. 2). An alternative linked enzyme assay was developed to control for the potential inhibitory activity of ATP on human PFK (Supplementary Methods 2.3).
The ADP-Glo™ end-point assay kit manufactured by Promega (cat. No. V9102) was used to measure ADP produced in the phosphofructokinase reaction:
Following this kinase reaction, the addition of a reagent results in any unused background ATP being removed and the reaction is sequestered. A second reagent is then added to convert the remaining ADP to ATP which is coupled to the luciferase/luciferin reaction to produce light. ‘Ultrapure’ ATP and ADP from Promega were used to reduce background noise. All reagents additional to those provided in the Promega ADP-Glo™ kit were purchased from Sigma-Aldrich.
The assay buffer comprised 50 mM triethanolamine (TEA), 10 mM MgCl2, 5 mM KCl, 0.1% w/v bovine serum albumin (BSA), 0.005% Tween-20, 1% DMSO, pH 7.4. A 3-fold serial dilution of 250x inhibitor stocks was carried out in 100% DMSO. 2 µl of these dilutions was added to 198 µl assay buffer and mixed well using a multichannel pipette. […] Concentration ranges of inhibitor compounds were 40 - 0.006 µM (final concentration, 1% DMSO). The PFK reaction in the presence of inhibitor was carried out using 10 µl of 1 µg/ml PFK (final concentration 0.4 µg/ml) which was added to 10 µl of the 1% DMSO inhibitor compound serial dilutions in a white, non-binding 96-well plate (Greiner BioOne 655904). CTCB-001 was used as a positive control at a final concentration of 5 µM. Assay buffer containing 1% DMSO was added instead of inhibitor compound for the negative control. The protein/inhibitor mixture was incubated for 10 minutes at room temperature (RT). The kinase reaction was started by adding a 5x ATP/F6P stock in assay buffer (final concentrations 0.5 mM F6P and 0.1 mM ATP). Plates were then sealed, centrifuged at 560 x g for 30 seconds and incubated at RT for 30 minutes. 25 µl of ‘ADP-Glo™ Reagent’ was then added to each well, mixed using a multichannel pipette and incubated at room temperature for 40 minutes. 50 µl of ‘Kinase Detection Reagent’ was added and incubated for 50 minutes at RT. The luminescence was recorded using a Spectramax© M5 Multi-mode Plate Reader (Molecular Devices) in single-point mode, with an integration time of 750 milliseconds. The luminescence values were converted to ADP concentration using a standard calibration curve for ADP. The resulting ADP concentrations were plotted as a function of inhibitor compound concentration using Kaleidagraph 4.0 software. The data were analysed using non-linear regression and a sigmoidal curve was fitted (Supplementary Figure 1) to determine the IC50. Kaleidagraph 4.0 uses the Levenberg-Marquardt algorithm in an iterative procedure to fit non-linear curves. […] The slope of the curve at the midpoint (m4) was set to 1.

TbPFK = biological target: T2, TbPFK (Trypanosoma brucei brucei, UniProt O15648); details: amidosulfonamide series; cited from earlier work
T2 construct: made in house; host or cells: Escherichia coli C41 (pET28a, codon optimised gene)
T2 sequence (O15648 1-487): T1 sequence (O15648 1-487)

T. b. brucei GVR35-VSL2 = assay: Mouse model of stage 1 and stage 2 HAT, bioluminescence imaging; assay type: in vivo, T. b. brucei in female CD-1 mice
Excerpt: An alternative mouse model for stage 1 (acute) and stage 2 (CNS-involved) HAT has been developed using a transgenic cell line derived from the pleiomorphic T. b. brucei GVR35 that expresses red-shifted firefly luciferase[17],[18]. […] T. b. brucei GVR35-infected mice present stage 1 disease by day 7 post infection with progression to stage 2 by day 21. By injecting the mouse with luciferin, the level of parasitaemia can be estimated in real time by monitoring the luminescence. Unlike monomorphic Lister 427 T. b. brucei, the pleiomorphic GVR35 T. b. brucei is controlled by a quorum-sensing mechanism resulting in the significant increase in survival time in mice and lower blood parasitaemia that occurs in waves. This extended survival time is also accompanied by parasite dissemination to multiple tissues and organs, including the skin, adipose tissue, lung and brain, with parasite loads increasing over time[17],[19].
For the mouse model of stage 1 and stage 2 HAT T. b. brucei GVR35-VSL2 parasites (3 × 10^4) were injected into a single donor female CD-1 mouse intraperitoneally. Once infection was established, starting on day 7 for stage 1 studies and day 21 for stage 2 studies, mice were either left untreated (n = 3) or dosed by oral gavage with CTCB compound in Cremophor EL: EtOH: D-PBS (30:10:60 v/v; n = 6). Progression of T. b. brucei GVR35-VSL2 infection was monitored primarily by in vivo bioluminescence imaging of infected mice using an IVIS Spectrum (PerkinElmer). For stage 1 studies, imaging of infected mice was performed before treatment on day 7 post infection and on days following the treatment (days 8, 9 and 14). Imaging on groups of three mice was performed 12 min after intraperitoneal injection of 150 mg kg^−1 D-luciferin (Promega) in PBS. For stage 2 studies, mice were imaged prior to treatment on day 21, and subsequently on days 22 and 23. On day 23, 24 h after the final dose, mice were sacrificed by cervical dislocation and perfused with PBS containing 15 g L^−1 glucose to allow ex vivo imaging of whole brains (Supplementary Figs. 12 and 13).
Female CD-1 (Charles River UK; 6-8 weeks old) mice were infected with 3 × 10^4 T. b. brucei GVR35-VSL2 bloodstream form parasites intraperitoneally. T. b. brucei GVR35-VSL2 expresses red-shifted luciferase and provides a better signal for imaging (13). Once infection was established, starting on day 7 for Stage 1 studies and day 21 for Stage 2 studies, mice were either left untreated (n=3) or dosed by oral gavage with CTCB compound in Cremophor EL: EtOH : D-PBS (30:10:60 v/v) (n = 6). Additional groups of mice (n=3) that received either a single intraperitoneal dose of diminazene aceturate (Sigma-Aldrich) at 40 mg/kg in sterile water or 0.1 ml melarsoprol gel (14) containing 3.6 mg melarsoprol, applied topically for 3 consecutive days, served as controls for Stage 1 and Stage 2 treatment studies, respectively.
Progression of T. b. brucei GVR35-VSL2 infection was monitored primarily by in vivo bioluminescence imaging of infected mice using an IVIS Spectrum (PerkinElmer) as described previously (5). For stage 1 studies, imaging of infected mice was performed before treatment on day 7 post-infection and in days following the treatment (days 8, 9 and 14). Imaging on groups of three mice was performed 12 minutes after intraperitoneal injection of 150 mg/kg D-luciferin (Promega) in PBS. For stage 2 studies, mice were imaged prior to treatment on day 21 and subsequently on days 22 and 23. On day 23, 24 hours after the final dose, mice were sacrificed by cervical dislocation and perfused with phosphate-buffered saline containing 15 g.L^−1 glucose to allow ex vivo imaging of whole brains. To this end, 100 μl D-luciferin was administered onto the brain surface and imaging performed immediately thereafter.

[3] = 72 h, read-out: EC50 (µM) in vitro parasite killing of bloodstream form T. brucei Lister 427 (Tbb EC50), 72 h, Alamar Blue
[4] = ADP-Glo, mean ± SD, read-out: IC50 (µM) for inhibition of T. brucei phosphofructokinase (PFK IC50)
[5] = source data for Fig. 2 and Table 1, read-out: Average IC50
[6] = source data, read-out: IC50 (µM), single dated measurement
[7] = Average IC50 (µM), source data for Fig. 2 and Table 1
[8] = IC50 (µM), single dated measurement, source data

Structure (SMILES) | EC50 [1, 3] | IC50 [2, 5] | IC50 [2, 6] | also measured
Clc1ccc(Cn2ccc3cnccc32)cc1Cl [CTCB103] | 7.8 ± 0.1 µM |  |  | IC50 [2, 4]: 0.46 ± 0.03 µM
Clc1ccc(Cn2cnc3cnccc32)cc1Cl [CTCB107] | 8.5 ± 0.6 µM | 0.6 µM | 0.6 µM | IC50 [2, 4]: 1.14 ± 0.76 µM
O=C(Cc1ccc(Cl)c(Cl)c1)Nc1ccc(S(=O)(=O)Nc2ccon2)cc1 [CTCB-001] | 20.2 ± 2.1 µM |  |  | IC50 (TbPFK): ~200 nM; IC50 [2, 7]: 0.25 µM; IC50 [2, 8]: 194 nM (2×) and 221 nM and 189 nM and 230 nM and 436 nM and 223 nM and 261 nM (2×)
Clc1ccc(Cn2ccnc2)cc1Cl [CTCB-12] | 8.9 ± 0.2 µM |  |  | L.E. ligand efficiency [2]: 0.51; IC50 [2, 7]: 0.83 µM; IC50 ([2]; IC50 (µM) for inhibition of T. brucei phosphofructokinase (PFK IC50), ADP-Glo, mean ± SD): 0.83 µM; IC50 [2, 8]: 0.83 µM
O=c1[nH]ccc2c1ccn2Cc1ccc(Cl)c(Cl)c1 [CTCB-360] | 1.1 ± 0.1 µM | 0.07 µM | 0.041 µM and 0.049 µM and 0.091 µM and 0.059 µM and 0.112 µM | 
O=c1c2ccn(Cc3ccc(Cl)c(Cl)c3)c2ccn1CCO [CTCB-401] | 0.91 ± 0.04 µM |  |  | EC50 ([1]; read-out: EC50 against the parasite): 0.9 µM; IC50 ([2]; read-out: IC50 TbPFK): 0.073 µM
NCCn1ccc2c(ccn2Cc2ccc(Cl)c(Cl)c2)c1=O [CTCB-421] | 0.54 ± 0.09 µM | 0.0335 µM |  | IC50 ([2]; read-out: IC50 TbPFK): 0.03 µM
CC(CN)n1ccc2c(ccn2Cc2ccc(Cl)c(Cl)c2)c1=O (stereo not shown) [CTCB-457] | 0.27 ± 0.01 µM | 0.11 µM | 0.092 µM and 0.122 µM | 
CNC[C@@H](C)n1ccc2c(ccn2Cc2ccc(Cl)c(Cl)c2)c1=O [CTCB-481] | 0.15 ± 0.05 µM | 0.12 µM | 0.122 µM | 
Nc1nc(N)nc(Nc2ccc([As]3SCC(CO)S3)cc2)n1 (stereo not shown) [Melarsoprol, melarsoprol, reference compound] |  |  |  | Whole body bioluminescence - Total Flux (T. b. brucei GVR35-VSL2; D21 pre-treatment, single mice): 9.807E+10 p/s and 6.826E+10 p/s and 5.548E+10 p/s; Side head bioluminescence - Total Flux (T. b. brucei GVR35-VSL2; D23, individual mice, Supp_Fig13): 2.996E+07 p/s and 8.365E+06 p/s and 9.321E+06 p/s; Ex vivo brain bioluminescence - Total Flux (T. b. brucei GVR35-VSL2; D23, single mice): 2.000E+06 p/s and 2.248E+06 p/s and 1.646E+06 p/s; Whole body bioluminescence - Total Flux (T. b. brucei GVR35-VSL2; D23 post-treatment, single mice): 1.530E+07 p/s and 2.111E+07 p/s and 2.252E+07 p/s
